The target in the assay is T1, PD brain-derived a-syn aggregates (Homo sapiens, UniProt P37840).
T1 construct: from tissue; host or cells: human PD donor brain, sarkosyl-insoluble 100,000 x g pellet
Description: Micro-radiobinding competition assay against Example-1 [^3H-1] (Table 8). The class given is binding. The note with it: for Competition at 100 nM (%): 100 nM non-radiolabelled example compound vs Example-1 [^3H-1] ligand; for Competition at 100 nM (%) / Competition at 1 μM (%): human PD brain-derived a-syn aggregates; for Competition at 1 μM (%): 1 μM non-radiolabelled example compound vs Example-1 [^3H-1] ligand. The protocol:
PD brain-derived a-syn aggregates were spotted onto microarray slides. The slides were incubated with the Example-1 [^3H-1] at 6 nM or 20 nM and the example compounds (non-radiolabelled) at 1 μM and 100 nM. In some cases, the non-radiolabelled example compounds were further assessed for a range of different concentrations, varying from 0.05 nM to 2 μM. After incubation, slides were washed and scanned by a real-time autoradiography system (BeaQuant, ai4R). Quantification of the signal was performed by using the Beamage image analysis software (ai4R). […] All measurements were performed with at least two technical replicates. For compounds tested in more than one experiment, the mean of the replicates or K; values in independent experiments is reported.
Results: Example compounds were assessed for their potency to compete with the binding of Example-1 [^3H-1] ligand to PD patient brain-derived a-syn aggregates. Results of the micro-radiobinding competition assay for the example compounds tested are shown in Table 8 as: % competition at 1 μM and 100 nM.

Each structure is given as a SMILES string.

For the compound `O=C1c2cn(-c3ccc(N4CC[C@H](F)C4)cn3)nc2CN1c1cccnc1` [Example 72], the “Competition at 100 nM (%)” value is 45% and the “Competition at 1 μM (%)” value came out at 79%. The corresponding values for `Cc1c2c(nn1-c1ccc(N3CC[C@H](F)C3)nc1)CN(c1ccccn1)C2=O` [Example 73] are 33% and 66%. The corresponding values for `COc1cccc(N2Cc3nn(-c4ccc(N5CC[C@@H](F)C5)nc4)cc3C2=O)n1` [Example 74] are 22% and 39%. Take `Cc1cccc(N2Cc3nn(-c4ccc(N5CC[C@@H](F)C5)nc4)cc3C2=O)n1` [Example 75]: the “Competition at 100 nM (%)” value was 58% and the “Competition at 1 μM (%)” value is given as 73%.

In the case of `COc1ccnc(N2Cc3nn(-c4ccc(N5CC[C@@H](F)C5)nc4)cc3C2=O)c1` [Example 76], the “Competition at 100 nM (%)” value was 69% and the “Competition at 1 μM (%)” value was 93%. The corresponding values for `COc1ccnc(N2Cc3nn(-c4ccc(N5CC[C@H](F)C5)nc4)cc3C2=O)c1` [Example 77] are 95% and 94%.

For `COc1cccc(N2Cc3nn(-c4ccc(N5CC[C@H](F)C5)nc4)cc3C2=O)n1` [Example 78], the “Competition at 100 nM (%)” value is on record as 60%. For the compound `N#Cc1cccc(N2Cc3nn(-c4ccc(N5CC[C@@H](F)C5)nc4)cc3C2=O)n1` [Example 79], the “Competition at 100 nM (%)” value is 74%. On the same count and under the same terms, under `Cc1ccnc(N2Cc3nn(-c4ccc(N5CC[C@H](F)C5)nc4)cc3C2=O)c1` [Example 82] stands 84%. Same read-out and setting: with `Cc1cccc(N2Cc3nn(-c4ccc(N5CC[C@H](F)C5)nc4)cc3C2=O)n1` [Example 83] the figure was 47%. In the case of `N#Cc1cccc(N2Cc3nn(-c4ccc(N5CC[C@H](F)C5)nc4)cc3C2=O)n1` [Example 84], the “Competition at 100 nM (%)” value is 14% and the “Competition at 1 μM (%)” value worked out at 38%. Take `O=C1c2cn(-c3ccc(N4CC[C@@H](F)C4)cc3)nc2CN1c1cccnc1` [Example 85]: the “Competition at 100 nM (%)” value is listed as 72% and the “Competition at 1 μM (%)” value was found to be 99%. Take `N#Cc1ccnc(N2Cc3nn(-c4ccc(N5CC[C@@H](F)C5)nc4)cc3C2=O)c1` [Example 86]: the “Competition at 100 nM (%)” value came to 64%. With `O=C1c2cn(-c3ccc(N4CC[C@H](F)C4)cc3)nc2CN1c1cccnc1` [Example 87], the “Competition at 100 nM (%)” value is reported as 67% and the “Competition at 1 μM (%)” value was found to be 92%. Besides, the Ki (mean of Ki values in independent experiments using PD brain-derived homogenates from two different donors) was found to be 15 nM. Consider `N#Cc1ccnc(N2Cc3nn(-c4ccc(N5CC[C@H](F)C5)nc4)cc3C2=O)c1` [Example 88], for which the “Competition at 100 nM (%)” value is on record as 75%. On to `O=C1c2cn(-c3ccc(NC4CC(F)C4)nc3)nc2CN1c1ccccn1` (stereo not drawn) [Example 89], for which the “Competition at 100 nM (%)” value came out at 29% and the “Competition at 1 μM (%)” value amounted to 75%. The corresponding values for `O=C1c2cn(-c3ccc(NC4CC(F)C4)nc3)nc2CN1c1ccncc1` (stereo not drawn) [Example 90] are 18% and 51%.

On to `O=C1c2cn(-c3ccc(N4CC[C@H](F)C4)nc3)nc2CN1c1cncc(F)c1` [Example 92], for which the “Competition at 100 nM (%)” value is listed as 32% and the “Competition at 1 μM (%)” value amounted to 73%.

`Cc1c2c(nn1-c1ccc(N3CC[C@H](F)C3)nc1)CN(c1ccncc1)C2=O` [Example 93]: the “Competition at 100 nM (%)” value was found to be 12% and the “Competition at 1 μM (%)” value came out at 47%. The corresponding values for `Cc1c2c(nn1-c1ccc(N3CC[C@@H](F)C3)nc1)CN(c1ccncc1)C2=O` [Example 94] are 18% and 70%. `Cc1c2c(nn1-c1ccc(N3CC[C@@H](F)C3)nc1)CN(c1cnn(C)c1)C2=O` [Example 96]: the “Competition at 100 nM (%)” value came out at 24% and the “Competition at 1 μM (%)” value is on record as 39%. Consider `O=C1c2cn(-c3ccc(N4CCCC4)nc3)nc2CN1c1cc(F)ccn1` [Example 100], for which the “Competition at 100 nM (%)” value worked out at 78%.

On to `Cc1cc(N2Cc3nn(-c4ccc(N5CC[C@@H](F)C5)nc4)cc3C2=O)ccn1` [Example 102], for which the “Competition at 100 nM (%)” value came out at 59% and the “Competition at 1 μM (%)” value is 68%. The corresponding values for `O=C1c2cn(-c3ccc(N4CCCC4)nc3)nc2CN1c1ncccc1F` [Example 103] are 41% and 70%. For `Cc1cc(N2Cc3nn(-c4ccc(N5CC[C@H](F)C5)nc4)cc3C2=O)ccn1` [Example 104], in that order: 86% and 98%. The corresponding values for `COc1cc(N2Cc3nn(-c4ccc(N5CC[C@H](F)C5)nc4)cc3C2=O)ccn1` [Example 106] are 95% and 100%. Consider `COc1cc(N2Cc3nn(-c4ccc(N5CC[C@@H](F)C5)nc4)cc3C2=O)ccn1` [Example 107], for which the “Competition at 100 nM (%)” value worked out at 92% and the “Competition at 1 μM (%)” value stood at 100%.

With `N#Cc1cncc(N2Cc3nn(-c4ccc(N5CC[C@@H](F)C5)nc4)cc3C2=O)c1` [Example 109], the “Competition at 100 nM (%)” value stood at 67%. For `Cc1ccc(N2Cc3nn(-c4ccc(N5CC[C@@H](F)C5)nc4)cc3C2=O)nc1` [Example 110], the “Competition at 100 nM (%)” value is listed as 75% and the “Competition at 1 μM (%)” value is given as 105%.

`N#Cc1cc(N2Cc3nn(-c4ccc(N5CC[C@H](F)C5)nc4)cc3C2=O)ccn1` [Example 111]: the “Competition at 100 nM (%)” value was 82% and the “Competition at 1 μM (%)” value is listed as 97%. As for `Cc1ccc(N2Cc3nn(-c4ccc(N5CC[C@H](F)C5)nc4)cc3C2=O)nc1` [Example 112], the “Competition at 100 nM (%)” value was 85% and the “Competition at 1 μM (%)” value is 105%.

On to `N#Cc1cc(N2Cc3nn(-c4ccc(N5CC[C@@H](F)C5)nc4)cc3C2=O)ccn1` [Example 114], for which the “Competition at 100 nM (%)” value stood at 92% and the “Competition at 1 μM (%)” value was 99%. `O=C1c2cn(-c3ccc(N4CCCC4)nc3)nc2CN1c1ccc(F)cn1` [Example 115]: the “Competition at 100 nM (%)” value amounted to 92% and the “Competition at 1 μM (%)” value amounted to 98%. For `Cn1ccc(N2Cc3nn(-c4ccc(N5CC[C@@H](F)C5)nc4)cc3C2=O)n1` [Example 116], in that order: 71% and 97%. As to `CC(C)n1cc(N2Cc3nn(-c4ccc(N5CC[C@@H](F)C5)nc4)cc3C2=O)cn1` [Example 117], the “Competition at 100 nM (%)” value came to 17% and the “Competition at 1 μM (%)” value amounted to 67%.

As to `Cn1ccc(N2Cc3nn(-c4ccc(N5CC[C@H](F)C5)nc4)cc3C2=O)n1` [Example 118], the “Competition at 100 nM (%)” value is reported as 61% and the “Competition at 1 μM (%)” value came out at 94%. For `CC(C)n1cc(N2Cc3nn(-c4ccc(N5CC[C@H](F)C5)nc4)cc3C2=O)cn1` [Example 119], in that order: 12% and 51%. With `Cn1cc(N2Cc3nn(-c4ccc(N5CCC[C@@H](F)C5)nc4)cc3C2=O)cn1` [Example 120], the “Competition at 100 nM (%)” value turned out to be 45% and the “Competition at 1 μM (%)” value was found to be 83%. For `Cn1cc(N2Cc3nn(-c4ccc(N5CCC[C@H](F)C5)nc4)cc3C2=O)cn1` [Example 121], in that order: 40% and 84%. In the case of `Cc1cnccc1N1Cc2nn(-c3ccc(N4CC[C@@H](F)C4)nc3)cc2C1=O` [Example 122], the “Competition at 100 nM (%)” value was found to be 34% and the “Competition at 1 μM (%)” value worked out at 61%.

Regarding `Cc1cnccc1N1Cc2nn(-c3ccc(N4CC[C@H](F)C4)nc3)cc2C1=O` [Example 123], the “Competition at 100 nM (%)” value was 32% and the “Competition at 1 μM (%)” value worked out at 58%. The corresponding values for `Cn1cc(N2Cc3nn(-c4ccc(N5CC(F)C5)nc4)cc3C2=O)cn1` [Example 124] are 61% and 98%.

Turning to `O=C1c2cn(-c3ccc(N4CC[C@@H](F)C4)nc3)nc2CN1c1ccns1` [Example 125], the “Competition at 100 nM (%)” value is given as 80% and the “Competition at 1 μM (%)” value was found to be 99%. Turning to `O=C1c2cn(-c3ccc(N4CC[C@@H](F)C4)nc3)nc2CN1c1cncs1` [Example 126], the “Competition at 100 nM (%)” value is listed as 75% and the “Competition at 1 μM (%)” value is given as 83%. Consider `O=C1c2cn(-c3ccc(N4CC[C@H](F)C4)nc3)nc2CN1c1ccns1` [Example 127], for which the “Competition at 100 nM (%)” value is 71% and the “Competition at 1 μM (%)” value is on record as 86%. The corresponding values for `O=C1c2cn(-c3ccc(N4CC[C@H](F)C4)nc3)nc2CN1c1cncs1` [Example 128] are 55% and 85%. As for `O=C1c2cn(-c3ccc(N4CCCC4)nc3)nc2CN1c1cnn(CCF)c1` [Example 129], the “Competition at 100 nM (%)” value was determined as 25% and the “Competition at 1 μM (%)” value was 74%. As to `COc1ccc(-n2cc3c(n2)CN(c2cccnc2)C3=O)cn1` [Example 130], the “Competition at 100 nM (%)” value was found to be 74% and the “Competition at 1 μM (%)” value is listed as 85%.

Consider `O=C1c2cn(-c3ccc(N4CC[C@@H](F)C4)nc3)nc2CN1c1cnsc1` [Example 131], for which the “Competition at 100 nM (%)” value was found to be 72% and the “Competition at 1 μM (%)” value amounted to 98%. The corresponding values for `O=C1c2cn(-c3ccc(N4CC[C@H](F)C4)nc3)nc2CN1c1cnsc1` [Example 132] are 63% and 93%.
